Calls of active or inactive are those of the source. The rule behind the calls is not given here.
Key:
[1] = Drug degradation in Sprague-Dawley rat plasma within 5 mins; assay type: ADME, cell-free; conditions: read-out: Drug degradation
[2] = molecular target: T1, Indoleamine 2,3-dioxygenase 1 (Homo sapiens, UniProt P14902); experiment: Inhibition of human Indoleamine 2,3-dioxygenase using L-tryptophan as substrate by emission fluorescence analysis
[3] = molecular target: T1, Indoleamine 2,3-dioxygenase 1; experiment: Inhibition of Indoleamine 2,3-dioxygenase in human HeLa cells in presence of L-tryptophan as substrate after 24 hrs in presence of L-tryptophan; assay type: cell-based
[4] = (§1) Volume of distribution at steady state in Sprague-Dawley rat plasma at 2 mg/kg, iv by LC-MS/MS analysis; assay type: ADME, organism-based; conditions: Sprague-Dawley, plasma, read-out: Vdss
[5] = AUC (0 to infinity) in Sprague-Dawley rat plasma at 2 mg/kg, iv by LC-MS/MS analysis; assay type: ADME, organism-based; parameters: dose 2 mg/kg, route intravenous, time infinity
[6] = Half life in Sprague-Dawley rat plasma at 10 mg/kg, po by LC-MS/MS analysis; assay type: ADME, organism-based
[7] = Cmax in Sprague-Dawley rat plasma at 10 mg/kg, po by LC-MS/MS analysis; assay type: ADME, organism-based; parameters: dose 10 mg/kg, route oral
[8] = Tmax in Sprague-Dawley rat plasma at 10 mg/kg, po by LC-MS/MS analysis; assay type: ADME, organism-based
[9] = AUC (0 to infinity) in Sprague-Dawley rat plasma at 10 mg/kg, po by LC-MS/MS analysis; assay type: ADME, organism-based; parameters: dose 10 mg/kg, route oral, time infinity
[10] = Oral bioavailability in Sprague-Dawley rat plasma at 10 mg/kg by LC-MS/MS analysis; assay type: ADME, organism-based
[11] = (§2) Half life in Sprague-Dawley rat plasma at 2 mg/kg, iv by LC-MS/MS analysis; assay type: ADME, organism-based; conditions: Sprague-Dawley, plasma
[12] = Clearance in Sprague-Dawley rat plasma at 2 mg/kg, iv by LC-MS/MS analysis; assay type: ADME, organism-based
B16-F10 = experiment: Antitumor activity against mouse B16F10 cells xenografted in mouse at 400 mg/kg bid dosed daily for 2 weeks; assay type: functional, organism-based
Rattus norvegicus [13] = experiment: as §1; assay type: ADME, organism-based; conditions: in vivo
Rattus norvegicus [14] = experiment: as §2; assay type: ADME, organism-based; conditions: in vivo

T1 sequence (P14902 whole entry): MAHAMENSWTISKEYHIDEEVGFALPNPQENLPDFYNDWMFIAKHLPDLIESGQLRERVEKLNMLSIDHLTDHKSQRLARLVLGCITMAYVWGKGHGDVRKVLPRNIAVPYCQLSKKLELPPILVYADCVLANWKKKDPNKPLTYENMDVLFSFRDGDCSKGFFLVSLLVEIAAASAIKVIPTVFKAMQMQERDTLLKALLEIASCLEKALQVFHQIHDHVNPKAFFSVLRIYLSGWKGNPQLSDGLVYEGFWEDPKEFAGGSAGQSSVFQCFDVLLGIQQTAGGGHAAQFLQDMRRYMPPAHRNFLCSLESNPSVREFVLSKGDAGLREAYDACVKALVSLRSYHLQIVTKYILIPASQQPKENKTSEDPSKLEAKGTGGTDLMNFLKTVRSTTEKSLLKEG

| Compound | IC50 [2] | EC50 [3] | AUC(0-inf) [5] | half-life [6] | Cmax [7] | Tmax [8] | AUC(0-inf) [9] | bioavailability [10] | other results |
| --- | --- | --- | --- | --- | --- | --- | --- | --- | --- |
| O=C(O)c1cccc(S(=O)(=O)NNc2ccc(Br)cc2)c1 | – | – | – | – | – | – | – | – | metabolised at 5 min [1]: 80% |
| CC(=O)N1CCc2cc(S(=O)(=O)NNc3ccc(Br)cc3)ccc21 | 34.6 nM | 231 nM | – | – | – | – | – | – | – |
| O=C(CCN1CCOCC1)Nc1ccc(S(=O)(=O)NNc2ccc(Br)cc2)cc1 | 77 nM | 217 nM | – | – | – | – | – | – | – |
| O=S(=O)(NNc1ccc(Br)cc1)c1ccc2[nH]c(O)nc2c1 | 57.3 nM | 63.1 nM | 594 ng·h/mL | 3 h | 124 ng/mL | 1.3 h | 382 ng·h/mL | 13% | Vd [4]: 6 L/kg; half-life [11]: 0.8 h; clearance [12]: 57.1 mL/min/kg |
| Nc1nc2cc(S(=O)(=O)NNc3ccc(Br)cc3)ccc2[nH]1 | 122 nM | 68.4 nM | – | – | – | – | – | – | – |
| O=C1CCCN1c1ccc(S(=O)(=O)NNc2ccc(Br)cc2)cc1 | 68.1 nM | 89.6 nM | 5580 ng·h/mL | 1.7 h | 2050 ng/mL | 4 h | 9730 ng·h/mL | 35% | Vd [4]: 1 L/kg; half-life [11]: 1.5 h; clearance [12]: 6.3 mL/min/kg |
| CC(=O)Nc1ccc(S(=O)(=O)NNc2ccc(Br)cc2)cc1 | – | – | 1740 ng·h/mL | 2.7 h | 1190 ng/mL | 0.7 h | 3220 ng·h/mL | 37% | Vd [4]: 1.5 L/kg; Activity (B16-F10): inactive; half-life [11]: 3.5 h; clearance [12]: 19.6 mL/min/kg |
| Cn1c(=O)n(C)c2cc(S(=O)(=O)NNc3ccc(Br)cc3)ccc21 | 47 nM | 135 nM | – | – | – | – | – | – | – |

Continued, in another order:

| IC50 [2] | EC50 [3] | AUC(0-inf) [5] | half-life [6] | Cmax [7] | Tmax [8] | AUC(0-inf) [9] | bioavailability [10] | Compound | other results |
| --- | --- | --- | --- | --- | --- | --- | --- | --- | --- |
| 75.8 nM | 365 nM | – | – | – | – | – | – | CN1C(=O)Cc2cc(S(=O)(=O)NNc3ccc(Br)cc3)ccc21 | – |
| 52.3 nM | 30.6 nM | – | – | – | – | – | – | O=C1Nc2ccc(S(=O)(=O)NNc3ccc(Br)cc3)cc2C1(F)F | – |
| > 10000 nM | – | – | – | – | – | – | – | O=C1Nc2ccc(S(=O)(=O)NNc3ccc(Br)cc3)cc2C1=O | – |
| 85 nM | 211 nM | – | – | – | – | – | – | O=c1ccc2cc(S(=O)(=O)NNc3ccc(Br)cc3)ccc2[nH]1 | – |
| 69.9 nM | 36.4 nM | 364 ng·h/mL | 4.7 h | 72 ng/mL | 1.3 h | 304 ng·h/mL | 17% | CC1(C)C(=O)Nc2ccc(S(=O)(=O)NNc3ccc(Br)cc3)cc21 | Vd [4]: 13 L/kg; half-life [11]: 2.4 h; clearance [12]: 93.3 mL/min/kg |
| 72.7 nM | 67 nM | 1350 ng·h/mL | 8.9 h | 63 ng/mL | 5.3 h | 763 ng·h/mL | 11% | O=C1CCc2cc(S(=O)(=O)NNc3ccc(Br)cc3)ccc2N1 | Vdss (Rattus norvegicus [13]): 20.8 L/kg; t1/2 (Rattus norvegicus [14]): 2.7 h |
| 112 nM | 195 nM | – | – | – | – | – | – | O=C1CCCc2cc(S(=O)(=O)NNc3ccc(Br)cc3)ccc2N1 | – |

Source: ChEMBL document CHEMBL3763120, “Phenyl Benzenesulfonylhydrazides Exhibit Selective Indoleamine 2,3-Dioxygenase Inhibition with Potent in Vivo Pharmacodynamic Activity and Antitumor Efficacy” (J Med Chem, 2016)
